Data set [1] relates to Staphylococcus aureus. Kind of data set: Antibacterial activity against methicillin-resistant Staphylococcus aureus CCARM 3089 strain assessed as bacterial growth inhibition measured at 18 to 24 hrs by microdilution assay. The conditions noted are these: time 18-24 hrs. The data set is classed as functional.
The test system of data set [2] is Staphylococcus aureus. In words: Antibacterial activity against methicillin-resistant Staphylococcus aureus CCARM 3090 strain assessed as bacterial growth inhibition measured at 18 to 24 hrs by microdilution assay. The conditions noted are these: time 18-24 hrs. The data set is classed as functional.
Data set [3] has as its system Staphylococcus aureus. Kind of data set: Antibacterial activity against methicillin-resistant Staphylococcus aureus CCARM 3095 strain assessed as bacterial growth inhibition measured at 18 to 24 hrs by microdilution assay. It is filed as functional. As to conditions: time 18-24 hrs. (Dilution methods test growth across graded concentrations, often in twofold steps.)

The test system of data set [4] is Pseudomonas aeruginosa. In words: Antibacterial activity against multidrug-resistant Pseudomonas aeruginosa CCARM 2095 strain assessed as bacterial growth inhibition measured at 18 to 24 hrs by microdilution assay. The data set is classed as functional. The conditions noted are these: time 18-24 hrs.
Data set [5] relates to Pseudomonas aeruginosa. In words: Antibacterial activity against multidrug-resistant Pseudomonas aeruginosa CCARM 2109 strain assessed as bacterial growth inhibition measured at 18 to 24 hrs by microdilution assay. The data set is classed as functional. The conditions noted are these: time 18-24 hrs.
A further data set concerns Enterococcus faecium. In words: Antibacterial activity against vancomycin-resistant Enterococcus faecium ATCC 51559 strain assessed as bacterial growth inhibition measured at 18 to 24 hrs by microdilution assay. The conditions noted are these: time 18-24 hrs. It is filed as functional.
Data set [6] deals with Staphylococcus aureus. In words: Antibacterial activity against methicillin-resistant Staphylococcus aureus CCARM 3089 strain assessed as bacterial growth inhibition by checkerboard assay. The data set is classed as functional.
Another data set concerns Escherichia coli. Kind of data set: Antibacterial activity against Escherichia coli KCTC 1682 strain assessed as bacterial growth inhibition measured at 18 to 24 hrs by microdilution assay. It is filed as functional. As to conditions: time 18-24 hrs.
The subject of data set [7] is Pseudomonas aeruginosa. In words: Antibacterial activity against Pseudomonas aeruginosa KCTC 1637 strain assessed as bacterial growth inhibition measured at 18 to 24 hrs by microdilution assay. The data set is classed as functional. The conditions noted are these: time 18-24 hrs.
Data set [8] relates to Staphylococcus epidermidis. Kind of data set: Antibacterial activity against Staphylococcus epidermidis KCTC 1917 strain assessed as bacterial growth inhibition measured at 18 to 24 hrs by microdilution assay. It is filed as functional. As to conditions: time 18-24 hrs.
Data set [9] has as its system Staphylococcus aureus. Kind of data set: Antibacterial activity against Staphylococcus aureus KCTC 1621 strain assessed as bacterial growth inhibition measured at 18 to 24 hrs by microdilution assay. It is filed as functional. As to conditions: time 18-24 hrs.
Another data set has as its system Erythrocyte. Kind of data set: Hemolytic activity in sheep RBC assessed as minimal hemolytic concentration causing 10% hemolysis incubated for 1 hr by ELISA. It is filed as toxicity, cell-based, Ovis aries. On the technique in general: ELISA stands for enzyme-linked immunosorbent assay.
Data set [10] concerns Pseudomonas aeruginosa. Kind of data set: Antibiofilm activity against multidrug-resistant Pseudomonas aeruginosa assessed as inhibition of biofilm formation. It is filed as functional.
Data set [11] deals with Pseudomonas aeruginosa. In words: Antibiofilm activity against multidrug-resistant Pseudomonas aeruginosa assessed as biofilm eradication. The data set is classed as functional.
Data set [12] relates to Pseudomonas aeruginosa. In words: Synergistic antibacterial activity against multidrug-resistant Pseudomonas aeruginosa CCARM 2095 strain assessed as bacterial growth inhibition by checkerboard assay. It is filed as functional.
In data set [13] the test system is Pseudomonas aeruginosa. Kind of data set: Additive antibacterial activity against multidrug-resistant Pseudomonas aeruginosa CCARM 2095 strain assessed as bacterial growth inhibition by checkerboard assay. The data set is classed as functional.
Data set [14] concerns Pseudomonas aeruginosa. In words: Bactericidal activity against multidrug-resistant Pseudomonas aeruginosa CCARM 2095 measured after 24 hrs by time-kill kinetics assay. It is filed as functional, organism-based.
The subject of data set [15] is Pseudomonas aeruginosa. Kind of data set: Bacteriostatic activity against multidrug-resistant Pseudomonas aeruginosa CCARM 2095 measured after 24 hrs by time-kill kinetics assay. It is filed as functional, organism-based.

In brackets after ≈: the same amount, converted by molar mass. Activity calls are given as the source filed them. The rule behind the calls is not given here. A value given as a limit tells only on which side of the number the result lay.

By MIC is commonly meant the least concentration at which growth counts as inhibited. For the compound COLISTIN, the minimum inhibitory concentration (MIC) in the data set with Staphylococcus aureus [1] stood at 27.7 µM; in the data set on Staphylococcus aureus [2] it was 27.7 µM; in the data set on Staphylococcus aureus [3], 13.8 µM; with Pseudomonas aeruginosa [4], 55.4 µM; with Pseudomonas aeruginosa [5], 27.7 µM; in the data set with Enterococcus faecium, 13.8 µM. The minimum inhibitory concentration (MIC) in the data set with Staphylococcus aureus [6] turned out to be 512 µg/mL.

In the case of `N=C(N)NCCCCNc1nc(NCCCCN)nc(N2CCN(c3nc(NCCCCN)nc(NCCCCN)n3)CC2Cc2ccccc2)n1` (stereo not given), the MIC came out at 22.2 µM (≈ 16 µg/mL) with Escherichia coli, 11.1 µM (≈ 8 µg/mL) in the data set with Pseudomonas aeruginosa [7], 5.6 µM (≈ 4.04 µg/mL) in data set [8] and 11.1 µM (≈ 8 µg/mL) in the data set with Staphylococcus aureus [9]. Besides, in the data set on Erythrocyte, the MHC is > 355.8 µM.

As to `N=C(N)NCCCNc1nc(NCCCN)nc(N2CCN(c3nc(NCCCN)nc(NCCCN)n3)CC2Cc2ccccc2)n1` (stereo not given), the minimum inhibitory concentration (MIC) with Escherichia coli was determined as 24 µM (≈ 16 µg/mL); in the data set on Pseudomonas aeruginosa [7] it was 24 µM (≈ 16 µg/mL); in data set [8], 12 µM (≈ 7.98 µg/mL); in the data set on Staphylococcus aureus [9], 12 µM (≈ 7.98 µg/mL). In addition, in the data set with Erythrocyte, the MHC is > 384 µM.

In the case of `N=C(N)NCCCNc1nc(NCCCNC(=N)N)nc(N2CC(Cc3ccccc3)N(c3nc(NCCCNC(=N)N)nc(NCCCNC(=N)N)n3)CC2Cc2ccccc2)n1` (stereo not given), the MIC in the data set with Escherichia coli amounted to 9.1 µM (≈ 8.02 µg/mL); in the data set on Pseudomonas aeruginosa [7] it was 18.1 µM (≈ 15.9 µg/mL); in data set [8], 9.1 µM (≈ 8.02 µg/mL); with Staphylococcus aureus [9], 4.5 µM (≈ 3.97 µg/mL). In addition, in the data set with Erythrocyte, the MHC is > 290.3 µM. Further, the MBEC50 with Pseudomonas aeruginosa [10] and with Pseudomonas aeruginosa [11] was 18.1 µM each time. Further, the MBEC90 in the data set on Pseudomonas aeruginosa [10] and in the data set on Pseudomonas aeruginosa [11] was 145.2 µM throughout. Besides, the MBIC with Pseudomonas aeruginosa [10] amounted to 36.3 µM. Besides, the MBIC50 in the data set on Pseudomonas aeruginosa [10] was found to be 4.5 µM.

With `N=C(N)NCCCN(CCCNC(=N)N)c1nc(NCc2ccccc2)nc(N2CC(Cc3ccccc3)N(c3nc(NCc4ccc5ccccc5c4)nc(N(CCCNC(=N)N)CCCNC(=N)N)n3)CC2Cc2ccccc2)n1` (stereo not given), the minimal inhibitory concentration (MIC) was 31.4 µM (≈ 34.9 µg/mL) in the data set on Escherichia coli, 7.8 µM (≈ 8.67 µg/mL) with Pseudomonas aeruginosa [7], 3.9 µM (≈ 4.33 µg/mL) in data set [8] and 15.7 µM (≈ 17.4 µg/mL) in the data set with Staphylococcus aureus [9]. The MHC with Erythrocyte came out at 56.8 µM.

As for `N=C(N)NCCCCNc1nc(NCCCCNC(=N)N)nc(N2CC(Cc3ccccc3)N(c3nc(NCCCCNC(=N)N)nc(NCCCCNC(=N)N)n3)CC2Cc2ccccc2)n1` (stereo not given), the minimum inhibitory concentration (MIC) (in the data set with Escherichia coli; in the data set with Pseudomonas aeruginosa [7]; in data set [8]; in the data set on Staphylococcus aureus [9]) was 8.5 µM (≈ 7.97 µg/mL) in each case. The MHC in the data set on Erythrocyte was > 273.2 µM. The MBEC50 with Pseudomonas aeruginosa [10] and in the data set with Pseudomonas aeruginosa [11] was 17.1 µM each time. Further, the MBEC90 in the data set on Pseudomonas aeruginosa [10] and in the data set on Pseudomonas aeruginosa [11] was 68.3 µM throughout. The MBIC in the data set with Pseudomonas aeruginosa [10] was 34.1 µM. The MBIC50 with Pseudomonas aeruginosa [10] was 8.5 µM.

`N=C(N)NCCCN(CCCNC(=N)N)c1nc(NCc2ccccc2)nc(N2CC(Cc3ccccc3)N(c3nc(NCc4ccccc4)nc(N(CCCNC(=N)N)CCCNC(=N)N)n3)CC2Cc2ccccc2)n1` (stereo not given): the MIC worked out at 16.5 µM (≈ 17.5 µg/mL) with Escherichia coli, 8.2 µM (≈ 8.7 µg/mL) in the data set on Pseudomonas aeruginosa [7], 4.1 µM (≈ 4.35 µg/mL) in data set [8] and 4.4 µM (≈ 4.67 µg/mL) in the data set on Staphylococcus aureus [9]. Besides, the MHC with Erythrocyte is 226.4 µM.

With `N=C(N)NCCCCNc1nc(NCCCCNC(=N)N)nc(N2CCN(c3nc(NCCCCNC(=N)N)nc(NCCCCNC(=N)N)n3)C(Cc3ccccc3)C2)n1` (stereo not given), the minimal inhibitory concentration (MIC) with Escherichia coli was 18.9 µM (≈ 16 µg/mL); in the data set on Pseudomonas aeruginosa [7], 9.4 µM (≈ 7.96 µg/mL); in data set [8], 4.7 µM (≈ 3.98 µg/mL); with Staphylococcus aureus [9] it was 9.4 µM (≈ 7.96 µg/mL). In the data set on Erythrocyte, the MHC is > 302.1 µM.

With `N=C(N)NCCNc1nc(NCCNC(=N)N)nc(N2CCN(c3nc(NCCNC(=N)N)nc(NCCNC(=N)N)n3)C(Cc3ccccc3)C2)n1` (stereo not given), the MIC (with Escherichia coli; in the data set on Pseudomonas aeruginosa [7]; in data set [8]; in the data set on Staphylococcus aureus [9]) was 21.8 µM (≈ 16 µg/mL) each time. For the same compound, the MHC with Erythrocyte was > 348.2 µM.

In the case of `O=C(O)c1cn(C2CC2)c2cc(N3CCNCC3)c(F)cc2c1=O` [CIPROFLOXACIN], the minimum inhibitory concentration (MIC) in the data set with Staphylococcus aureus [1] was > 6180 µM; in the data set on Staphylococcus aureus [2] it was > 6180 µM; in the data set on Staphylococcus aureus [3] it was > 6180 µM; in the data set on Pseudomonas aeruginosa [4] it was 3090 µM (≈ 1020 µg/mL); in the data set with Pseudomonas aeruginosa [5] it was > 6180 µM; in the data set with Enterococcus faecium, 1550 µM (≈ 512 µg/mL). In addition, the MIC with Pseudomonas aeruginosa [12] was 1020 µg/mL; with Pseudomonas aeruginosa [13], 1020 µg/mL; with Staphylococcus aureus [6] it was 512 µg/mL. The outcome with Pseudomonas aeruginosa [14] and in the data set with Pseudomonas aeruginosa [15] was inactive.

The values are drawn from ChEMBL document CHEMBL5331051, “Cationic, amphipathic small molecules based on a triazine-piperazine-triazine scaffold as a new class of antimicrobial agents” (Eur J Med Chem, 2022).
